Columns and labels:
Conditions in all cases: main component drawn
S. pneumoniae D39V [1] = test: fitness (endpoint OD595 vs no drug) (fraction); higher = more growth
Method in brief: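 Fitness was defined as the optical density at the transition into stationary phase relative to the robust mean of no-drug control wells. Values were capped at 1. Cultures were started at OD595 0.01 in 384-well plates (30 µl, or 55 µl for S. pneumoniae) in TSB, LB Lennox or CY at 37 °C. OD595 was recorded every 30 min over 14 h, with the first reading subtracted as background.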

B. subtilis 168 = test: Bliss interaction score (quartile over a dose matrix) (fitness difference); higher = more antagonism (negative = synergy)
Method in brief: (§1)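 The Bliss score subtracts expected fitness, the product of the single-drug fitness values, from observed fitness. Fitness is plate-normalised OD595 at entry into stationary phase, relative to the robust no-drug mean and capped at 1, with single-drug fitness inferred from combinations. Summaries are quartiles over technical, biological and donor/recipient replicates.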

S. aureus Newman = test: as above
Method in brief: as §1

S. aureus DSM 20231 = test: as above
Method in brief: as §1

S. pneumoniae D39V [2] = test: as above
Method in brief: as §1
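Wherever Bliss interaction score (quartile over a dose matrix) is given: first quartile when negative (synergy) and third quartile when positive (antagonism).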

CC[C@H]1OC(=O)[C@H](C)[C@@H](O[C@H]2C[C@@](C)(OC)[C@@H](O)[C@H](C)O2)[C@H](C)[C@@H](O[C@@H]2O[C@H](C)C[C@H](N(C)C)[C@H]2O)[C@](C)(OC)C[C@@H](C)C(=O)[C@H](C)[C@@H](O)[C@]1(C)O [Clarithromycin] + CC(C1CCC(C(O1)OC2C(CC(C(C2O)OC3C(C(C(CO3)(C)O)NC)O)N)N)N)NC [Gentamicin]
fitness, S. pneumoniae D39V [1], one replicate
Conditions	first compound 0.007812 µg/mL	first compound 0.01562 µg/mL	first compound 0.03125 µg/mL
partner 2 µg/mL	0.876	0.84	0.63
partner 4 µg/mL	0.873	0.878	0.651
partner 8 µg/mL	0.885	0.842	0.645

fitness, S. pneumoniae D39V [1]
Conditions	first compound 0.0625 µg/mL	first compound 0.07 µg/mL	first compound 0.125 µg/mL	first compound 0.14 µg/mL	first compound 0.25 µg/mL	first compound 0.28 µg/mL
partner 2 µg/mL	0.45	0.146	0.228	0.0838	0.0804	0.0949
partner 4 µg/mL	0.447	0.144	0.206	0.0957	0.0925	0.0738
partner 8 µg/mL	0.349	0.195	0.169	0.132	0.104	0.0605

Conditions	Bliss interaction score
B. subtilis 168	0.0895
S. aureus DSM 20231	0.12
S. aureus Newman	0.108
S. pneumoniae D39V [2]	-0.06

CC[C@H]1OC(=O)[C@H](C)[C@@H](O[C@H]2C[C@@](C)(OC)[C@@H](O)[C@H](C)O2)[C@H](C)[C@@H](O[C@@H]2O[C@H](C)C[C@H](N(C)C)[C@H]2O)[C@](C)(OC)C[C@@H](C)C(=O)[C@H](C)[C@@H](O)[C@]1(C)O [Clarithromycin] + CCC(C)C1C(=O)NC(=C)C(=O)NC(C(=O)NC(CSCC(C(=O)N1)NC(=O)/C(=C/C)/NC(=O)C(C(C)CC)N)C(=O)NC2C(SCC(NC(=O)CNC(=O)C3CCCN3C2=O)C(=O)NC(CCCCN)C(=O)NC4C(SCC(NC(=O)CNC(=O)C(NC(=O)C(NC(=O)C(NC(=O)CNC4=O)C)CC(C)C)CCSC)C(=O)NC(CC(=O)N)C(=O)NC(CCSC)C(=O)NC(CCCCN)C(=O)NC5C(SCC6C(=O)NC(C(=O)NC(CSC(C(C(=O)N6)NC(=O)C(NC5=O)C)C)C(=O)NC(CO)C(=O)NC(C(C)CC)C(=O)NC(CC7=CN=CN7)C(=O)NC(C(C)C)C(=O)NC(=C)C(=O)NC(CCCCN)C(=O)O)CC8=CN=CN8)C)C)C)CC(C)C [Nisin]
fitness, S. pneumoniae D39V [1], one replicate
Conditions	first compound 0.007812 µg/mL	first compound 0.01562 µg/mL	first compound 0.03125 µg/mL
partner 1.6 µg/mL	0.0546	0.105	0.0716
partner 3.2 µg/mL	0.0468	0.0811	0.0837
partner 6.4 µg/mL	0.0495	0.123	0.0731

S. pneumoniae D39V [1]
Conditions	fitness
first compound 0.0625 µg/mL, partner 0.4275 µg/mL	0.704
first compound 0.0625 µg/mL, partner 1.71 µg/mL	0.0947
first compound 0.07 µg/mL, partner 1.6 µg/mL	0.0167
first compound 0.07 µg/mL, partner 3.2 µg/mL	0.0245
first compound 0.07 µg/mL, partner 6.4 µg/mL	0.0168
first compound 0.125 µg/mL, partner 0.4275 µg/mL	0.233
first compound 0.125 µg/mL, partner 0.855 µg/mL	0.118
first compound 0.125 µg/mL, partner 1.71 µg/mL	0.0991
first compound 0.14 µg/mL, partner 1.6 µg/mL	0.019
first compound 0.14 µg/mL, partner 3.2 µg/mL	0.0272
first compound 0.14 µg/mL, partner 6.4 µg/mL	0.0323
first compound 0.25 µg/mL, partner 0.4275 µg/mL	0.0872
first compound 0.25 µg/mL, partner 0.855 µg/mL	0.0757
first compound 0.25 µg/mL, partner 1.71 µg/mL	0.0969
first compound 0.28 µg/mL, partner 1.6 µg/mL	0.0103
first compound 0.28 µg/mL, partner 3.2 µg/mL	0.0421
first compound 0.28 µg/mL, partner 6.4 µg/mL	0.0171

Conditions	Bliss interaction score
B. subtilis 168	0.0377
S. aureus DSM 20231	-0.0781
S. aureus Newman	-0.0489
S. pneumoniae D39V [2]	0.0379

From the supplement of paper PMC10627819
